In patent US4016272A, “Anthelmintic thiodiphenylamine cupric chloride complex salt” (priority 1975, dated 1977):

Key:
[1] = meat, milk, and wool
From the text: The known preparations are efficient only in respect to the imaginal forms of certain helminth infestation diseases. The novel preparation based on thiodiphenylamine cupric chloride complex salt is not toxic and is convinient in use.

[2] = test system: helminth infestation diseases; assay: Helminthicide action in laboratory and field conditions on farm animals; assay type: in vivo, sheep, cows, and other farm animals
From the text: The helminthicide action has been studied in laboratory and field conditions on sheep, cows, and other farm animals of different age and having various helminth infestation diseases. The course of treatment comprises a single oral administration of the preparation in spring and a repeated single administration in autumn. The preparation efficiency is 95 to 100% for the cured animals.

[3] = Lethal dose / toxicity in farm animals; assay type: in vivo; design: lethal dose LD50 / LD100: unit not given here

Substance: complex salt of thiodiphenylamine cupric chloride
- productivity of farm animals [1]: enhances productivity of farm animals
- efficiency for curing various helminth infestation diseases in pre-imaginal and imaginal forms ([2]; pre-imaginal and imaginal forms): highly efficient for curing various helminth infestation diseases in pre-imaginal and imaginal forms
- preparation efficiency for the cured animals ([2]; single oral administration in spring and repeated single administration in autumn): 95 to 100%
- LD100 ([3]; all varieties of farm animals): 1,200
- lethal dose LD50 ([3]; all varieties of farm animals): 1,000
- toxicity ([3]; in vivo): not toxic
